In patent US9233127B2, “Compositions and methods for CXCR4 signaling and umbilical cord blood stem cell engraftment” (University of Virginia Patent Foundation, priority 2012, dated 2016):
Entries after “also recorded” stand apart in the source; their conditions may differ.

Key:
UCB CD34+ cells = assay: Transwell chemotaxis of UCB CD34+ cells to SDF-1 (priming); format: cell-based, human
Method: FIG. 11A-B—Effect of SLP and its components on chemotaxis of CD34^+ cells. Panel A: Chemotaxis of BM CD34^+ cells towards medium alone (control), SDF-1 low (10 ng/mL) alone, SLP (combined SLP from three patients), SDF-1 low+SLP, and SDF-1 high (300 ng/mL). Data are pooled from quadruplicate samples from three independent experiments. *p<0.00001. Panel B: Chemotaxis of UCB CD34^+ cells to medium alone (control), SDF-1 low (10 ng/mL) alone and SDF-1 low (10 ng/mL)+uPAR (1 μg/mL) or +ICAM (1 μg/mL) or +VCAM (1 μg/mL) or +FN (2 μg/mL), or +FG (4 μg/mL) or +C3a (1 μg/mL). Data are pooled from quadruplicate samples from three independent experiments. * p<0.00001.
An increased migration of UCB-derived CD34^+ cells, as compared to BM and mPB CD34^+ cells was reported in transwell migration assays was previously reported. However, we noticed large inter-individual differences in the in vitro migratory ability of UCB CD34^+ cells, ranging from 1.1% to 14.3% for spontaneous migration and 3.1% to 62.3% for SDF-1-induced (300 ng/mL) migration. The lower migratory capacity in vitro of UCB-derived CD34^+ cells was not due to lower expression of CXCR4, but likely reflects the decreased migratory behavior of these cells. […] Based on this, we postulate that UCB HSPC responsiveness to an SDF-1 gradient varies with each collected UCB unit and that, in cases when responsiveness is low, UCB HSPCs should be identified and primed before infusion.
Moreover, as SLP contains several components that potentially could prime the responses of CD34^+ cells, (Example 2, FIG. 11, panel B) the most important being PMV and activated complement proteins such as anaphylatoxin C3a, soluble VCAM-1, soluble ICAM-1, uPAR, FG, and FN, we evaluated whether these factors could induce the chemotaxis of HSPCs when used alone. […] We also examined whether FG, FN, soluble VCAM-1, soluble ICAM-1, uPAR, and C3a prime HSPCs in their responses to SDF-1. […] To determine whether this also affects UCB CD34^+ clonogenic progenitors, UCB CD34^+ cells were collected from the lower chambers after the chemotaxis assay and plated in methylcellulose cultures. […] Moreover, a similar effect for the established hematopoietic cell lines Molt 4, Nalm-6, and THP-1 was also found (data not shown).

CXCR4 [1] = assay: FACS analysis of CXCR4 expression on BM or UCB CD34+ cells; format: cell-based, human; set-up: dose or concentration left out as unconfirmed; settings: 0, 12, and 24 hrs
Description: In another set of experiments, we attempted to elucidate the molecular mechanisms by which C3a enhances the responsiveness of hematopoietic cells to an SDF-1 gradient. […] However, we observed that actin polymerization of CD34^+ cells to a low dose of SDF-1 was enhanced in the presence of C3a.

[2] = tested on: human umbilical vein endothelial cells; assay: Adhesion of UCB CD34+ cells to endothelial cells; format: cell-based
UCB and BM CD34+ cells = assay: MMP secretion and trans-Matrigel migration of primed CD34+ cells; format: cell-based, human; settings: UCB and BM CD34+ cells primed with C3a
CXCR4 [3] = assay: CXCR4 incorporation into membrane lipid rafts of UCB CD34+ HSC; format: cell-based, human; settings: short-term (15-30 min) exposure to C3a
Method: FIG. 14—Priming effect depends on inclusion of CXCR4 into membrane lipid rafts. […] comprises three rows and three columns of images of micrographs. Lipid raft formation on normal human UCB-derived CD34^+ cells not stimulated (control) or stimulated with C3a or desArgC3a. For visualization of lipid rafts, CD34^+ cells were fixed in 3.7% paraformaldehyde/Ca- and Mg-free PBS for 15 min and permeabilized by Triton X-100 in PBS for 5 min at room temperature (RT). The primary antibodies used for raft analysis are cholera toxin B-subunit conjugated with Fluorescein Isothiocyanate (FITC) (Sigma Aldrich, St. Louis, Mo.) and mouse monoclonal anti-hCXCR4 immunoglobulin (Ig)G (R&D Systems, Minneapolis, Minn.). After rinsing in phosphate-buffered saline (PBS), the sections were incubated with Alexa Fluor 568 goat anti-mouse IgG (Molecular Probes, Eugene, Oreg.) for 45 min.

[4] = tested on: UCB MNC and CD4+45RA+ T-cells; assay: Transmigration of UCB MNC and CD4+/45RA+ T-cells to SDF-1 without and with C3a priming; format: cell-based, human; settings: C3a 1 μg/ml 30 minutes; SDF-1 10 ng/ml, 3 h
Method: FIG. 30A-B—UCB MNC migration to SDF-1. Lymphocytes from SSC/FSC plots were gated to determine the number of transmigrating UCB CD45^+CD4^+ T-cells. A. The total number of transmigrated lymphocytes migrating without and with C3a priming prior to exposure to 10 ng/ml SDF-1 (mean±SD). […] All staining patterns of labeled cells were compared to cells incubated with APC- and PerCP-isotype antibodies to set negative quadrants gates.
FIG. 31A-B—UCB CD4^+45RA T-cell migration to SDF-1. […] A. Percentage of selected CD4^+/45RA^+ T-cells transmigrating without and with C3a priming prior to exposure to 10 ng/ml SDF-1 (mean±SD). B. CD45^+CD4^+ T-cells were observed only in gate P3 in contrast to the transmigration of MNC.
Cord blood MNC (FIG. 30A-B) isolated by Ficoll density gradient centrifugation or naïve CD4^+/45RA^+ T-cells (FIG. 31A-B below), isolated from MNC fractions (Miltenyi), were incubated in DMEM media with 1% human serum albumin or exposed to complement protein C3a (1 μg/ml) for 30 minutes at RT. […] Transmigrated cells were counted (Z Series Coulter counter) and stained with anti-CD4-PerCP anti-CD45-APC antibodies for 20 min in PBS buffer with 10% FBS prior to flow cytometric analyses on a […] in […], cells were fixed in 2% paraformaldehyde prior to acquisition. […]

UCB MNC = assay: In vitro migration assay UCB (CD34+ HSC enumerated by FACS); format: cell-based, human; settings: C3a 1 ug/ml; 3 h chemotaxis assay
Method: FIG. 52—In Vitro Migration Assay UCB. UCB MNC are loaded in the top chamber and the number of CD34^+ HSC present after the 3 h chemotaxis assay in the lower chambers from trans-wells are enumerated by FACS.

C3a: 77 amino acid residue protein derived from the human complement C3a precursor; SEQ ID NO:1
SDF-1-mediated transwell cell migration of C3a primed UCB CD34+ HSC (UCB CD34+ cells): enhanced
responsiveness of UCB cells to SDF-1 gradient (UCB CD34+ cells; UCB-derived CD34+ cells exposed/primed): significantly increase the responsiveness
chemotactic response of UCB CD34+ cells to SDF-1 (UCB CD34+ cells; added to lower chambers with SDF-1 10 ng/mL, uPAR, ICAM, VCAM, C3a 1 μg/mL, FN 2 μg/mL, FG 4 μg/mL): increased the chemotactic response
induction of chemotaxis of HSPCs when used alone (UCB CD34+ cells; without SDF-1): no evidence that they did
CXCR4 expression after C3a exposure (CXCR4 [1]): not enhanced; also recorded: negative results
adhesion of UCB CD34+ cells to human umbilical vein endothelial cells ([2]; C3a): increases adhesion
adhesion of CD34+ cells ([2]; combination of C3a priming and SDF-1): only to a slight increase
MMP-9 and MMP-2 secretion (UCB and BM CD34+ cells): significantly increase
trans-Matrigel migration toward a low dose of SDF-1 (UCB and BM CD34+ cells): significantly increase
CXCR4 incorporation into membrane lipid rafts (CXCR4 [3]): enhances CXCR4 incorporation
migration of UCB MNC or naïve CD45+ CD4+ cells to a low SDF-1 gradient [4]: prime migration of a portion of the cell populations
rates of UCB chemotaxis in vitro (UCB MNC): significantly higher rates
